Data reported in PMC10151334, “Anti-proliferative potential and oxidative reactivity of thermo-oxidative degradation products of stigmasterol and stigmasteryl esters for human intestinal cells” (Scientific Reports, 2023).
Like-named read-outs stand apart in the source and are kept apart here.

Assays:
S. typhimurium TA100 = settings: for Mutagenic index TA100: reference mutagen; for reversion of mutations in TA100: 40 μg/mL, presence and absence of the microsomal fraction
Method: (§1) Potential mutagenicity or pro-mutagenicity of non-heated and heated ST, ST-LA, and ST-OA was determined using the bacterial reverse mutation assay (Ames test) with Salmonella enterica subsp. enterica ser. typhimurium tester strains TA98, TA100, and TA102, which were obtained from the Polish Collection of Microorganisms of the Institute of Immunology and Experimental Therapy of the Polish Academy of Sciences in Wroclaw.
(§2) Mutagenicity experiments were performed in the liquid pre-incubation assay, without and with metabolic activation by supplying Aroclor 1254-induced rat liver microsomal fraction (S9, Sigma-Aldrich) with NADP and cofactors for NADPH-supported oxidation, according to the procedure described by Mortelmans and Zeiger[39]. Briefly, reaction mixtures, consisting of 12-h bacterial culture, non-heated and heated compound (ST, ST-LA, ST-OA) at a concentration of 40 μg, 0.2 M phosphate buffer (pH 7.4), and alternatively S9 activating mixture, were pre-incubated at 37 °C for 20 min. […] The mutagen, 2-aminoanthracene (5 μg) (Sigma-Aldrich), was a positive control in pro-mutagenicity experiments. After pre-incubation, the reaction mixtures were added to the top agar supplemented with traces of histidine and biotin and poured onto the plates covered with minimum glucose agar. The cultures were incubated for 48 h at 37 °C, and the number of revertants (His+) colonies was counted manually.
(§3) Compounds with MI ≥ 2 can be recognized as potentially mutagenic.

S. typhimurium TA98 = assay: Bacterial reverse mutation assay (Ames test), strain TA98; settings: for reversion of mutations in TA98: 40 μg/mL, presence and absence of the microsomal fraction
Method: as §1, §2, §3

S. typhimurium TA102 = assay: Bacterial reverse mutation assay (Ames test), strain TA102; settings: for effect on TA102 revertants: 40 μg/mL, regardless of metabolic activation (+/− S9)
Method: as §1, §2, §3

CCD 841 CoN cells [1] = assay: DNA damage detection, comet assay (SCGE); format: cell-based, human; settings: reference oxidant, 100 μM, 30 min
Method: The cells were grown at 6-well plates at the established density and standard culture conditions and exposed to the non-heated and heated ST, ST-OA, and ST-LA for 48 h. The non-treated cells and cells treated with H2O2 (100 μM, 30 min) to induce oxidative DNA damage constituted the negative and positive controls, respectively. After treatment, cells were analyzed for DNA damage using a single cell gel electrophoresis (SCGE) called comet assay, described in detail previously. Briefly, harvested cells suspended in low melting point agarose were put onto microscope slides pre-coated with normal melting point agarose and subjected sequentially to lysis, alkaline electrophoresis (pH > 13), and neutralization ([…]). The cells were stained with SYBRGold (Molecular Probes), viewed under a fluorescence microscope (Axiovert 200, Zeiss, Carl Zeiss, Gottingen, Germany), and analyzed using CometScore™ software (TriTek Corp., Sumerduck, VA, USA). At least 100 cells were analyzed on a microscope slide; 300 cells were considered for DNA damage detection in one sample. Data were expressed as the mean percentage of DNA content in the comet tail. […] Based on the comets' categorization, the total comet score (TCS) was calculated according to the formula: TCS = 0(n) + 1(n) + 2(n) + 3(n) + 4(n), where “n” is the number of cells in each comet class (0–4)[45].

FHs 74 Int cells = test system: FHs 74 Int cells; set-up: method as in PMID 31883991; settings: normal human small intestine cells; cited from earlier work
[2] = Thermo-oxidative treatment at 180 °C for 8 h, degradation of the compound; format: physicochemical; settings: heated at 180 °C for 8 h under oxygen atmosphere
Method: ST, ST-OA, and ST-LA (50 mg each) were placed separately in glass vials and heated at 180 °C for 8 h under an oxygen atmosphere. After thermo-oxidative treatment, the tested compounds were stored at − 20 °C until chemical and biological analyses. The non-heated and heated ST and its esters were analyzed to detect degradation products and oxyderivatives. Analytical methods were described in the article published previously.

CCD 841 CoN cells [3] = assay: MultiTox-Fluor Multiplex Cytotoxicity Assay (live and dead cell fluorescence); format: cell-based; settings: doses up to 40 μg/mL, 48 h
Method: The normal human diploid CCD 841 CoN cell line (ATCC® CRL-1790™) isolated from colon mucosa was obtained from American Type Culture Collection (ATCC, Manassas, VA, USA). Cells were cultured in Dulbecco’s Modified Eagle’s Medium (DMEM, Sigma-Aldrich) supplemented with fetal bovine serum (FBS; Gibco BRL, Grand Island, NY, USA) to a final concentration of 10% and maintained at 37 °C in a humidified atmosphere with 5% CO2.
In the cytotoxicity experiments, CCD 841 CoN cells were seeded in 96-well plates at an initial density of 2.0 × 10^4 cells/cm^2 and incubated for 24 h. […] Control culture contained the vehicle at the amount corresponding to the sample analyzed.
The Multitox-Fluor Multiplex Cytotoxicity Assay (Promega GmbH, Mannheim, Germany) was applied to determine the relative number of live and dead cells in the CCD 841 CoN cell cultures treated with the analyzed compounds. The assay determined live- and dead-cell protease activities using two fluorogenic peptide substrates, cell-permeant (glycyl-phenylalanyl-amino fluorocoumarin; GF-AFC) and cell-impermeant (bis-alanyl-alanyl-phenylalanyl-rhodamine 110; bis-AAF-R110). After treatment, the cells were incubated with GF-AFC and bis-AAF-R110 substrates for 60 min at 37 °C. The live- and dead-cell proteases produced AFC and R110 products, measured using a Tecan M200 Infinite microplate reader (Tecan Group Ltd., Männedorf, Switzerland) at different excitation (400 nm and 485 nm) and emission (505 nm and 520 nm) spectra. The assay was conducted according to the manufacturer’s instructions.

CCD 841 CoN cells [4] = assay: Cell cycle analysis by flow cytometry (propidium iodide); format: cell-based, human; settings: 40 μg/mL, 24 h
Method: CCD 841 CoN cells were grown in 6-well plates at an initial cell density of 2 × 10^4 cells/cm^2 for 24 h under standard culture conditions. The cells were treated for 24 h with the analyzed compounds at a concentration of 40 μg/mL; the high dose was applied because of the relatively low cytotoxic potential of ST-OA and ST-LA as determined in cytotoxicity studies. In addition, the cells were exposed to 0.05 μM camptothecin (Sigma-Aldrich) as a positive reference compound known to modulate cell cycle progression.
After treatment, the cells were harvested by trypsinization, washed in PBS, and fixed in 70% ethanol. Then, the cells were stained with 50 μg/mL propidium iodide in the presence of 100 μg/mL RNase (Sigma-Aldrich). The sample preparation method and staining protocol were described previously. The cycle phase distribution was analyzed with an Amnis™ FlowSight™ flow cytometer (Luminex Corporation, TX, USA).

CCD 841 CoN cells [5] = assay: DNA synthesis, BrdU incorporation (Cell Proliferation ELISA); format: cell-based, human; settings: 10-40 μg/mL, 48 h
Method: CCD 841 CoN cells were grown in black 96-well plates at an initial cell density of 2 × 10^4 cells/cm^2 for 24 h under standard culture conditions. The cells were treated with ST (2.5, 5, 10, 20, and 40 μg/mL) and its esters ST-OA and ST-LA (10, 20, and 40 μg/mL) for 48 h. DNA synthesis was measured by incorporating thymidine analog 5-bromo-2′-deoxyuridine (BrdU) into newly synthesized DNA using the Cell Proliferation ELISA kit according to the protocol recommended by the manufacturer (Roche Diagnostics GmbH, Mannheim, Germany). Briefly, BrdU was added to the treated cells 24 h before the end of the exposure to the ST, ST-OA, and ST-LA (final BrdU concentration of 10 μM). After treatment, BrdU-labeled DNA was denatured (30 min, 20 °C). Then, BrdU was bonded with a peroxidase-conjugated anti-BrdU antibody (90 min, 20 °C) and reacted with the peroxidase substrate. The absorbance measurement was done with a stop solution (1 M H2SO4) at 450 nm with reference wavelength 690 nm using a Tecan M200 Infinite microplate reader.

[6] = test system: caspase 3/7 activity in CCD 841 CoN cells; assay: Caspase 3/7 activity assay (APO-One Homogeneous); format: cell-based, human; settings: 40 μg/mL, 24 h
Method: CCD 841 CoN cells were grown in black 96-well plates at an initial cell density of 2 × 10^4 cells/cm^2 for 24 h under standard culture conditions. The cell cultures were treated for 24 h with ST, ST-OA, and ST-LA at a 40 μg/mL dose. After treatment, caspase-3/7 activity was determined using the APO-One Homogeneous Caspase-3/7 Assay (Promega Corporation, Wisconsin, USA), which is based on the proteolytic cleavage of C-terminal side of aspartate residue in the DEVD peptide substrate by caspase 3/7 into fluorescent rhodamine 110 (R110). Analysis of caspase 3/7 activity was carried out following the manufacturer's instructions. Briefly, the cells after the treatment were incubated at room temperature with Apo-ONE® Caspase-3/7 Reagent—bifunctional cell lysis/caspase activity buffer combined with the pro-fluorescent caspase-3/7 substrate Z-DEVD-R110. After 4-h incubation, fluorescence was measured at an excitation wavelength of 485 nm and an emission wavelength of 530 nm using a Tecan M200 Infinite microplate reader. Data obtained were normalized to cellular protein content, quantified by BCA assay (Pierce® BCA Protein Assay Kit, Thermo Scientific Inc., USA) according to the manufacturer's protocol.

THLE-2 cells = test system: THLE-2 cells; set-up: method as in PMID 31883991; settings: normal human liver cells; cited from earlier work
[7] = with metabolic activation (+ S9), reference mutagen

[N-]=[N+]=[N-].[Na+] [Sodium azide, sodium azide, reference compound]
Mutagenic index TA100 (S. typhimurium TA100; without metabolic activation (− S9), dose printed with the label): 13.55
Mutagenic index TA100 (S. typhimurium TA100; without metabolic activation (− S9), dose printed with the label, listed as sodium azide): 13.6

Nc1ccc2cc3ccccc3cc2c1 [2-Aminoanthracene, 2-aminoanthracene, reference compound]
Mutagenic index TA98 (S. typhimurium TA98; [7]): 6.00
Mutagenic index TA100 (S. typhimurium TA100; with metabolic activation (+ S9)): 2.03
Mutagenic index TA102 (S. typhimurium TA102; [7]): 2.95

OO [H2O2, reference compound]
total comet score (TCS) (CCD 841 CoN cells [1]): 263.1 ± 29.4

CCCCC/C=C\C/C=C\CCCCCCCC(=O)OC1CCC2(C)C(=CCC3C2CCC2(C)C(C(C)/C=C/C(CC)C(C)C)CCC32)C1 (stereo not shown) [ST-LA, stigmasteryl linoleate]
cytotoxic effects (FHs 74 Int cells): no cytotoxic effects
Fatty acid residue depletion (%) [2]: 31.11 ± 3.2%
Sterol moiety depletion (%) [2]: 71.6 ± 6.6%
reversion of mutations in TA98 (S. typhimurium TA98): did not induce the reversion of mutations
effect on colon cell viability / cytotoxicity (CCD 841 CoN cells [3]): did not affect colon cell viability
reversion of mutations in TA100 (S. typhimurium TA100): did not induce the reversion of mutations
subpopulation of dead cells with lower/reduced DNA content (CCD 841 CoN cells [4]): Slight expanding the cell subpopulation with reduced DNA content
DNA synthesis inhibition (CCD 841 CoN cells [5]): not observed
caspase 3/7 activity [6]: slightly increased caspase-3/7 activities
effect on TA102 revertants (S. typhimurium TA102): did not affect the number of TA102 revertants
cytotoxic effects (THLE-2 cells): no cytotoxic effects

CCCCCCCC/C=C\CCCCCCCC(=O)OC1CCC2(C)C(=CCC3C2CCC2(C)C(C(C)/C=C/C(CC)C(C)C)CCC32)C1 (stereo not shown) [ST-OA, stigmasteryl oleate]
cytotoxic effects (FHs 74 Int cells): no cytotoxic effects
Fatty acid residue depletion (%) [2]: 77.14 ± 5.3%
Sterol moiety depletion (%) [2]: 88.8 ± 3.5%
reversion of mutations in TA98 (S. typhimurium TA98): did not induce the reversion of mutations
effect on colon cell viability / cytotoxicity (CCD 841 CoN cells [3]): did not affect colon cell viability
reversion of mutations in TA100 (S. typhimurium TA100): did not induce the reversion of mutations
subpopulation of dead cells with lower/reduced DNA content (CCD 841 CoN cells [4]): Slight expanding the cell subpopulation with reduced DNA content
DNA synthesis inhibition (CCD 841 CoN cells [5]): not observed
caspase 3/7 activity [6]: slightly increased caspase-3/7 activities
effect on TA102 revertants (S. typhimurium TA102): did not affect the number of TA102 revertants
cytotoxic effects (THLE-2 cells): no cytotoxic effects
